Source: patent US20210085640A1, “ACYLATED CATECHIN POLYPHENOLS AND METHODS OF THEIR USE FOR THE TREATMENT OF CANCER” (Flagship Pioneering Innovations V, Inc., priority 2018, published 2021)

Assays:
Type in all cases: cell-based
[1] = system: Daudi lymphoma cancer cells; experiment: Cancer cell survival (CellTiter-Glo), Daudi; conditions: Homo sapiens, 72 h
Procedure, shortened: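 Daudi cells (4×10^3/well) were exposed for 72 h at 37 °C to nine concentrations of compound, added as 10× solutions spanning 1 μM–10 mM (fatty acids) or 100 nM–1 mM (others). CellTiter-Glo luminescence gave % survival versus untreated, medium-blank corrected; IC50 derived.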

[2] = system: A549 lung cancer cells; experiment: Cancer cell survival (CellTiter-Glo), A549; conditions: Homo sapiens, 72 h
Procedure, shortened: (§1)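 Cells seeded at 4×10^3 cells/well, incubated overnight, then treated in triplicate at nine concentrations for 72 h at 37 C, 5% CO2. Viability by CellTiter-Glo luminescence, survival % normalized to untreated and medium controls; IC50 derived.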

[3] = system: T24 bladder cancer cells; experiment: Cancer cell survival (CellTiter-Glo), T24; conditions: Homo sapiens
Procedure, shortened: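 T24 cells seeded at 4×10^3 cells/well overnight, then exposed 72 h at 37 C, 5% CO2 to nine concentrations in triplicate. Survival measured by CellTiter-Glo luminescence relative to untreated and medium controls; IC50 derived.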

[4] = system: A-431 skin cancer cells; experiment: Cancer cell survival (CellTiter-Glo), A-431; conditions: Homo sapiens, A-431 cells, 72 h
Procedure, shortened: as §1

[5] = system: HCT 116 colorectal cancer cells; experiment: Cancer cell survival (CellTiter-Glo), HCT 116; conditions: Homo sapiens, HCT 116 cells, 72 h
Procedure, shortened: as §1

[6] = system: MCF7 breast cancer cells; experiment: Cancer cell survival (CellTiter-Glo), MCF7; conditions: Homo sapiens, 72 h
Procedure, shortened: as §1

[7] = system: PC-3 prostate cancer cells; experiment: Cancer cell survival (CellTiter-Glo), PC-3; conditions: Homo sapiens, PC-3 cells, 72 h
Procedure, shortened: as §1

[8] = system: AGS stomach cancer cells; experiment: Cancer cell survival (CellTiter-Glo), AGS; conditions: 72 h
Procedure, shortened: as §1

[9] = 317 μM, read-out: Cell survival at given concentration
[10] = 1 mM, read-out: Cell survival at given concentration
[11] = 3 mM, read-out: Cell survival at given concentration
[12] = 10 mM, read-out: Cell survival at given concentration

Q: Which results are given for CCC(=O)O [propionate]?
A: viability at 1 µM ([1]; 1 μM, Table 4.2, read-out: Cell survival at given concentration): 97%; viability at 3 µM ([1]; 3 μM, Table 4.2, read-out: Cell survival at given concentration): 97%; viability at 10 µM ([1]; 10 μM, Table 4.2, read-out: Cell survival at given concentration): 99%; viability at 32 µM ([1]; 32 μM, Table 4.2, read-out: Cell survival at given concentration): 99%; viability at 100 µM ([1]; 100 μM, Table 4.2, read-out: Cell survival at given concentration): 101%; viability at 317 µM [1, 9]: 97%; viability at 1000 µM [1, 10]: 75%; viability at 3000 µM [1, 11]: 47%; viability at 10000 µM [1, 12]: 18%; IC50 ([1]; Table 4.2): 2.73 mM; viability at 1 µM ([2]; 1 μM, Table 7.2, read-out: Cell survival at given concentration): 98%; viability at 3 µM ([2]; 3 μM, Table 7.2, read-out: Cell survival at given concentration): 98%; viability at 10 µM ([2]; 10 μM, Table 7.2, read-out: Cell survival at given concentration): 102%; viability at 32 µM ([2]; 32 μM, Table 7.2, read-out: Cell survival at given concentration): 103%; viability at 100 µM ([2]; 100 μM, Table 7.2, read-out: Cell survival at given concentration): 101%; viability at 317 µM [2, 9]: 104%; viability at 1000 µM [2, 10]: 104%; viability at 3000 µM [2, 11]: 94%; viability at 10000 µM [2, 12]: 65%; viability at 1 µM ([3]; T-24, 1 μM, 72 h, Table 3.2, read-out: Cell survival at given concentration): 99%; viability at 3 µM ([3]; T-24, 3 μM, 72 h, Table 3.2, read-out: Cell survival at given concentration): 97%; viability at 10 µM ([3]; T-24, 10 μM, 72 h, Table 3.2, read-out: Cell survival at given concentration): 97%; viability at 32 µM ([3]; T-24, 32 μM, 72 h, Table 3.2, read-out: Cell survival at given concentration): 99%; viability at 100 µM ([3]; T-24, 100 μM, 72 h, Table 3.2, read-out: Cell survival at given concentration): 97%; viability at 317 µM ([3]; T-24, 317 μM, 72 h, read-out: Cell survival at given concentration): 98%; viability at 1000 µM ([3]; T-24, 1 mM, 72 h, read-out: Cell survival at given concentration): 89%; viability at 3000 µM ([3]; T-24, 3 mM, 72 h, read-out: Cell survival at given concentration): 83%; viability at 10000 µM ([3]; T-24, 10 mM, 72 h, read-out: Cell survival at given concentration): 60%; IC50 ([3]; T-24, 72 h, Table 3.2, read-out: IC50): > 10 mM; viability at 1 µM ([4]; 1 μM, Table 9.2, read-out: Cell survival at given concentration): 99%; viability at 3 µM ([4]; 3 μM, Table 9.2, read-out: Cell survival at given concentration): 101%; viability at 10 µM ([4]; 10 μM, Table 9.2, read-out: Cell survival at given concentration): 103%; viability at 32 µM ([4]; 32 μM, Table 9.2, read-out: Cell survival at given concentration): 102%; viability at 100 µM ([4]; 100 μM, Table 9.2, read-out: Cell survival at given concentration): 104%; viability at 317 µM [4, 9]: 99%; viability at 1000 µM [4, 10]: 98%; viability at 3000 µM [4, 11]: 89%; viability at 10000 µM [4, 12]: 70%; IC50 ([4]; Table 9.2): > 10 mM; viability at 1 µM ([5]; 1 μM, Table 6.2, read-out: Cell survival at given concentration): 98%; viability at 3 µM ([5]; 3 μM, Table 6.2, read-out: Cell survival at given concentration): 102%; viability at 10 µM ([5]; 10 μM, Table 6.2, read-out: Cell survival at given concentration): 103%; viability at 32 µM ([5]; 32 μM, Table 6.2, read-out: Cell survival at given concentration): 103%; viability at 100 µM ([5]; 100 μM, Table 6.2, read-out: Cell survival at given concentration): 106%; viability at 317 µM [5, 9]: 103%; viability at 1000 µM [5, 10]: 98%; viability at 3000 µM [5, 11]: 66%; viability at 10000 µM [5, 12]: 19%; IC50 ([5]; Table 6.2): 4.38 mM; viability at 1 µM ([6]; 1 μM, Table 5.2, read-out: Cell survival at given concentration): 99%; viability at 3 µM ([6]; 3 μM, Table 5.2, read-out: Cell survival at given concentration): 97%; viability at 10 µM ([6]; 10 μM, Table 5.2, read-out: Cell survival at given concentration): 103%; viability at 32 µM ([6]; 32 μM, Table 5.2, read-out: Cell survival at given concentration): 102%; viability at 100 µM ([6]; 100 μM, Table 5.2, read-out: Cell survival at given concentration): 102%; viability at 317 µM [6, 9]: 94%; viability at 1000 µM [6, 10]: 91%; viability at 3000 µM [6, 11]: 77%; viability at 10000 µM [6, 12]: 51%; IC50 ([6]; Table 5.2): > 10 mM; viability at 1 µM ([7]; 1 μM, Table 8.2, read-out: Cell survival at given concentration): 100%; viability at 3 µM ([7]; 3 μM, Table 8.2, read-out: Cell survival at given concentration): 98%; viability at 10 µM ([7]; 10 μM, Table 8.2, read-out: Cell survival at given concentration): 98%; viability at 32 µM ([7]; 32 μM, Table 8.2, read-out: Cell survival at given concentration): 101%; viability at 100 µM ([7]; 100 μM, Table 8.2, read-out: Cell survival at given concentration): 104%; viability at 317 µM [7, 9]: 98%; viability at 1000 µM [7, 10]: 94%; viability at 3000 µM [7, 11]: 84%; viability at 10000 µM [7, 12]: 66%; IC50 ([7]; Table 8.2): > 10 mM; viability at 1 µM ([8]; 1 μM, Table 10.2, read-out: Cell survival at given concentration): 102%; viability at 3 µM ([8]; 3 μM, Table 10.2, read-out: Cell survival at given concentration): 98%; viability at 10 µM ([8]; 10 μM, Table 10.2, read-out: Cell survival at given concentration): 103%; viability at 32 µM ([8]; 32 μM, Table 10.2, read-out: Cell survival at given concentration): 101%; viability at 100 µM ([8]; 100 μM, Table 10.2, read-out: Cell survival at given concentration): 104%; viability at 317 µM [8, 9]: 101%; viability at 1000 µM [8, 10]: 103%; viability at 3000 µM [8, 11]: 96%; viability at 10000 µM [8, 12]: 70%
